melting point [°C]	Compound
226 to 228	O=C(Cc1ccc(Br)cc1)Nc1ccsc1C(=O)O
47 to 49	Cc1ccc(-n2nc(C(C)C)cc2N)cc1
182 to 184	Nc1ccc(-c2ncc3n2CCCC3)cc1
118 to 120	CCn1nnnc1-c1cccc(N)c1
211 to 213	O=C(O)CCCNC(=O)c1cccnc1
122 to 124	CN(c1ccc(C(=N)N)cc1)C1CCCCC1
50 to 52	Cc1ccc(-n2c(C)cc(CC(=O)O)c2C)cc1
49 to 51	CCOC(=O)c1ccc(S(=O)(=O)Cl)cc1
74 to 76	NCC(O)COCc1ccccc1 (stereo not drawn)
63 to 65	CS(=O)(=O)c1ccc(S)cc1
236 to 238	O=C(Nc1ccccn1)c1cc2ccccc2cc1O
54 to 56	CCOC(=O)COc1ccc(C#N)cc1
152 to 154	CC(Cl)C(=O)N1CC(=O)Nc2cc(C(F)(F)F)ccc21 (stereo not drawn)
209 to 211	Nc1ncc(-c2ccc(F)cc2)s1
71 to 73	ClCc1ccc(-c2ccccc2)cc1
152 to 154	O=C(O)C1CCN(c2ccc(Cl)cn2)CC1
99 to 101	NC(=NO)c1cccc(NC(=O)CN2CCOCC2)c1
29 to 31	O=C(c1ccc(Br)cc1)C(F)(F)F
145 to 147	Nc1ccc(-c2ccccc2)nn1
82 to 84	O=C1CCc2c1ccc(Cl)c2Cl
116 to 118	CC(O)CNC(=O)c1cccc(O)c1 (stereo not drawn)
114 to 116	O=Cc1c[nH]nc1-c1ccccc1F

melting point [°C]	Compound
134 to 136	Nc1cnccc1-n1ccnc1
174 to 176	Cc1ccc(S(=O)(=O)NC(CCl)c2ccccc2)cc1 (stereo not drawn)
163 to 165	COC(=O)c1cc(Cl)c2cc(Br)ccc2n1
114 to 116	CS(=O)(=O)Nc1ccc(N)cc1
169 to 171	NS(=O)(=O)Cc1ccc(Cl)cc1Br
64 to 66	NCC1(O)Cc2ccccc2C1
139 to 141	Cc1ccc(-n2c(C)c(Br)c3c2CCCC3=O)cc1
186 to 188	O=C(O)c1cccnc1SCc1cccc(Br)c1
59 to 61	Fc1ccc(C2=NOC(CCl)C2)cc1 (stereo not drawn)
144 to 146	Nc1nc2c(s1)COCC2
93 to 96	NS(=O)(=O)c1cccc(NC(=O)c2ccccc2Cl)c1
177 to 179	N#Cc1cnn(-c2ccc(Br)cc2)c1N
63 to 65	O=S(=O)(CCO)c1ccc(Br)cc1
125 to 127	Nc1ccc(N2CCCC2=O)cc1
91 to 93	Cc1nn(-c2ccc(F)cc2)cc1C=O
374 to 376	O=C(O)c1cc(F)cc2[nH]c(S)nc12
221 to 223	Cc1cc(C(=O)O)nn1-c1ccc(F)cc1F
179 to 181	CC(C)c1ccc(NC(=S)NN)cc1
89 to 91	Clc1nc(CN2CCCCC2)nc2scc(-c3cccs3)c12
60 to 62	Nc1ccc(Sc2ccc(Cl)cc2)cc1
134 to 136	NNc1ccc(S(=O)(=O)NC2CC2)cc1
46 to 48	O=Cc1cc([N+](=O)[O-])ccc1OC(F)F

melting point [°C]	Compound
224 to 226	Nc1cccc(C(=O)Nc2ccncc2)c1
289 to 291	COc1ccc2[nH]cc(C(=O)CC#N)c2c1
88 to 90	CC(Cl)C(=O)NCc1ccccc1Cl (stereo not drawn)
74 to 76	CC(=O)c1cccc(S(=O)(=O)N(C)C)c1
154 to 156	OCc1cnc(-c2ccccc2)[nH]1
209 to 211	O=C(O)c1coc(-c2ccccc2)n1
129 to 131	CCN(CC)CCn1c(N)nc2ccccc21
214 to 216	O=C(O)c1ccc(N2CCCc3ccccc32)cc1
282 to 284	Cc1nn(Cc2c(Cl)cccc2Cl)c2sc(C(=O)O)cc12
167 to 169	Nc1ccc2[nH]c(=O)[nH]c2c1
240 to 242	O=c1ccc(-n2cncn2)n[nH]1
108 to 110	COC(=O)c1cc2cc(CBr)ccc2o1
114 to 116	Nc1cc(Br)ccc1-n1cncn1
225 to 227	O=C(O)c1ccccc1NS(=O)(=O)c1ccc(Br)cc1
93 to 95	Cc1ccc(-n2[nH]c(-c3ccco3)cc2=N)cc1
40 to 45	CCOc1ccc(S(=O)(=O)Cl)cc1
53 to 55	Sc1nnc(CCCc2ccccc2)o1
309 to 311	O=c1[nH]cnc2cnc(Cl)cc12
59 to 61	CC(CC(=O)O)C(=O)c1cccc(F)c1 (stereo not drawn)
178 to 180	Cc1ccn(-c2ccc(C(=O)O)cc2)n1
99 to 101	Nc1ccc([N+](=O)[O-])cc1Br
168 to 170	Clc1nc(C=Cc2ccc(Br)cc2)nc2sc3c(c12)CCCC3

melting point [°C]	Compound
217 to 219	O=c1[nH]c(CCl)nc2cc(-c3ccc(Cl)cc3)sc12
110 to 112	Nc1ccccc1NC(=O)c1cccs1
119 to 121	NC(C(=O)O)(c1cccc(C(F)(F)F)c1)C(F)(F)F (stereo not drawn)
126 to 128	CC(Oc1cccnc1)C(=O)O (stereo not drawn)
194 to 196	COc1cccc(CSCC(N)C(=O)O)c1 (stereo not drawn)
239 to 241	NC(=O)c1cn(CC(=O)O)c2ccccc12
119 to 121	NC(=O)C(N)c1ccc(Br)cc1 (stereo not drawn)
105 to 107	CC(C)COc1ccc(C(=O)O)cn1
259 to 261	Cc1ccc(-n2[nH]c(C(=O)O)cc2=O)cc1
111 to 113	O=C(CCSc1ccccc1)c1ccc(F)cc1
129 to 131	Cc1cc(F)ccc1-n1cc(C(=O)O)nn1
179 to 181	Cn1c(CCl)nc2ccccc2c1=O
128 to 130	O=S(=O)(Cl)c1cc2ccc(Cl)nc2cc1F
205 to 207	COc1ccc(/C=C(/C(=O)O)c2cccs2)cc1
189 to 191	COc1ccc2c(c1)NC(=O)C2O (stereo not drawn)
199 to 201	Cc1c[nH]c(=O)n1-c1ccccc1Cl
252 to 254	Sc1nnc2sc3ccccc3n12
218 to 220	Nc1nnc(C=Cc2ccco2)s1
131 to 133	CS(=O)(=O)c1ccc(C(=O)c2ccccc2)cc1

More lines, now with the values behind:

Compound	melting point [°C]
COc1ccc([N+](=O)[O-])cc1CN=[N+]=[N-]	33 to 35
OC1(Cc2ccc(F)cc2F)CC2CCC(C1)N2 (stereo not drawn)	142 to 144
O=C(CCl)Nc1cc2c(cc1[N+](=O)[O-])OCO2	142 to 144
O=C(O)C1CCN(C=CC(=O)C(F)(F)F)CC1	135 to 137
O=C(O)CCNC(=O)C1CCCCC1	125 to 127
Sc1ccc2c(c1)OCCCO2	41 to 43
O=S(=O)(Cl)c1cc2c(cc1Br)OCCCO2	105 to 107
Cc1cc(C(=O)O)ccc1N1CCCS1(=O)=O	174 to 176
COc1ccc(S(=O)(=O)NCC(=O)O)cc1	131 to 133
Cc1cc(C)cc(OCC(=O)N2Cc3ccccc3CC2C(=O)O)c1 (stereo not drawn)	161 to 165
Cc1nn(C2CCS(=O)(=O)C2)c2ncc(C=O)cc12 (stereo not drawn)	149 to 151
O=C(O)c1cn(C2CCCCC2)nn1	163 to 165
NC(=S)NC1CCCCCC1	89 to 91
CC1C(=O)NC(=O)C1C (stereo not drawn)	56 to 58
O=C(O)C1CCN(c2ccc(S(=O)(=O)N3CCOCC3)cc2[N+](=O)[O-])CC1	225 to 227
Cc1nn(Cc2ccccc2)c(C)c1C(=O)O	137 to 139
CCc1nn(C)c(Cl)c1C=O	38 to 40
O=S(=O)(c1ccc(Br)s1)N1CCNCC1	195 to 205
Cc1sc(C(N)=O)cc1S(=O)(=O)Cl	122 to 124
COc1ccccc1NC(=O)NC1CCNCC1	83 to 85

Compound	melting point [°C]
CS(=O)(=O)NCc1ccccc1	49 to 51
CCOC(C(=O)O)(c1ccccc1)c1ccccc1	113 to 115
NCCCN1CCC(C(N)=O)CC1	94 to 96
O=C(O)c1cc(F)c(F)cc1I	127 to 129
Nc1nnc(C2CCCCC2)o1	222 to 224
O=C(O)CNC(=O)c1cc2c(s1)CCCC2	177 to 179
O=C(NCCO)c1cccc(S(=O)(=O)N2CCCCC2)c1	65 to 68
CC(C)n1[nH]ccc1=NC(=O)OCC(F)(F)F	77 to 79
COc1cc(CCl)ccc1S(C)(=O)=O	106 to 108
O=C(O)C1CC(=O)N(c2ccccc2Cl)C1 (stereo not drawn)	141 to 143
Cc1nnc(S)n1C1CCCC(C)C1 (stereo not drawn)	129 to 131
O=C1COc2cc(Br)c(Cl)cc2N1	281 to 283
NC(=O)c1csc(C(=O)CCl)c1	175 to 177
N#Cc1ncc(C(=O)O)cc1Br	177 to 179
CC(C)Cc1nc(C(=O)O)cs1	104 to 106
NC(=O)c1ccc(C(=O)O)o1	286 to 288
CC(=O)c1c[nH]c(C(=O)C(Cl)(Cl)Cl)c1	190 to 192
O=C(CCl)c1ccc2c(c1)COC2	109 to 111
Cc1nnc(NC(=O)OCC(F)(F)F)s1	231 to 233
Cn1cc(C(=O)O)c(C(C)(C)C)n1	140 to 142

Compound	melting point [°C]
Cc1cc(Cl)ccc1S(=O)(=O)Cl	54 to 56
Cc1ccc(C)c(N2N=C(C(=O)O)CCC2=O)c1	149 to 151
COc1ccc(C)cc1C(=O)CBr	73 to 75
CC(C)(C)c1cc(NC(=O)CBr)on1	139 to 141
O=C(O)c1cnn(C2CCCCC2)c1	197 to 199
NC(=O)c1cn[nH]c1	223 to 225
CC(C)CCNC(=O)C1CCN(C(=O)CCl)CC1	119 to 121
BrCCC12CC3CC(CC(C3)C1)C2	56 to 58
CC(=O)c1ccc(S(=O)(=O)N(C)CCCC(=O)O)cc1	80 to 82
CCCc1c(C(=O)O)[nH]c(C)c1C(=O)OC	215 to 217
NS(=O)(=O)c1cc(Cl)c(Cl)c(C(=O)O)c1	237 to 239
Cc1nn(CCO)c(N)c1C	129 to 131
N#CCC1=NCCN1	84 to 86
Cc1nc2nccc(C(=O)O)n2n1	226 to 228
CC(NC(N)=O)C12CC3CC(CC(C3)C1)C2 (stereo not drawn)	159 to 161
COC1CCN(C(=O)Nc2cccc(C(=O)O)c2)CC1	196 to 198
O=C(O)CCN1C(=O)COc2cc(Br)ccc21	153 to 155
CCOc1ccc(Cl)c(C(=O)O)n1	127 to 129

From a melting point compilation (Tetko et al.)
